Key:
[1] = system: human melanoma A875 cells; assay: MTT colorimetric experiment, cell growth inhibition; assay type: cell-based; conditions: melanoma A875 cells, 0.1, 1, 10, 100, 200 and 250 μmol/L, MTT after 24 h
Method: (§1) MTT colorimetric experiments were performed after 24 h, respectively: prior to the finish of each experiment, 15 μl of MTT solution in a concentration of 5 mg/ml was added to each well, and the culture was continued in dark at 37° C. for 4 h, then 150 μl of DMSO was added to each well and oscillating in a shaker for 10 min, and then the residue was placed in a microplate reader to detect the optical density OD) at 490 nm, and the inhibition rate was calculated according to the following formula: cell growth inhibition rate (control group OD490—test group OD490)/control group OD490×100%.

[2] = system: lymphoma U937 cells; assay: as above; assay type: cell-based; conditions: U937 cells, 0.1, 1, 10, 100, 200 and 250 μmol/L, MTT after 24 h
Method: as §1

[3] = system: phosphorylated ERK1/2 (P-ERK1/2); assay: Western Blotting of phosphorylated ERK1/2 in U937 cells; assay type: cell-based; conditions: 10 μmol/L, 24 hours
Method: (§2) The inhibition of the STAT3 and ERK signal pathways achieved by Mogroside I E1, Mogroside II A2 and mogrol was detected by Western Blotting, specifically:
(§3) Group 1: histiocytic lymphoma U937 cells (1×10^6 cells/well) were inoculated into a 6-well culture plate for staying overnight, and 0 and 10 μmol/L of Mogroside I E1, Mogroside II A2 and mogrol were added respectively, and the culture was continued for 24 hours;
(§4) After the termination of the cell culture, the culture solution was removed, and the residue was washed with PBS (0.01 mol/L, pH 7.4), and then a cell lysis solution containing protease inhibitors was added at an amount of 50 μl/well, and the mixture was placed in an ice bath for lysis at 4° C. for 30 min and then centrifuged at 14000 r/min for 10 min, and then total proteins were obtained from the supernatant;
(§5) The protein concentrations were measured with bovine serum albumin (BSA) as the standard. 50 μg of the total proteins was separated by polyacrylamide gel electrophoresis with 12% […], electrophoretically transferred to a PVDF membrane (polyvinylidene fluoride membrane), and blocked for 1 h by 5% of skim milk (containing 0.1% of Tween 20), and then antibodies p-STAT3 (Tyr705) and p-Erk1/2 as well as β-actin were added, and the primary antibody was incubated at 4° C. overnight (β-actin was used as reference in loading amount); the membrane was washed for 3 times with TBS-T, 5 min each time; secondary antibody marked by horseradish peroxidase (HRP) was added for incubation at room temperature for 1 h, the membrane was washed for 3 times with a wash solution (TBS-T), 10 min each time, and then ECL was added for incubation in dark for 5 min, and subsequently, a fluorescence imaging analyzer was used for image development and scanning analysis, and the results of Western Blotting detection are shown in FIGS. 4 to 6.

[4] = system: phosphorylated STAT3 (P-STAT3, Tyr705); assay: Western Blotting of phosphorylated STAT3 in U937 cells; assay type: cell-based; conditions: 10 μmol/L, 24 hours
Method: as §2, §3, §4, §5

[5] = system: phosphorylated ERK1/2 (P-ERK1/2); assay: Western Blotting of phosphorylated ERK1/2 in A875 cells; assay type: cell-based, human; conditions: melanoma A875 cells, 10 μmol/L, 24 hours
Method: as §2
(§6) Group 2: human melanoma A875 cells (1×10^6 cells/well) were inoculated into a 6-well culture plate for staying overnight, and 0 and 10 μmol/L of Mogroside I E1, Mogroside II A2 and mogrol were added respectively, and the culture was continued for 24 hours;
as §4, §5

[6] = system: phosphorylated ERK1/2 (P-ERK1/2); assay: Western Blotting of phosphorylated ERK1/2 in K562 cells; assay type: cell-based, human; conditions: leukemia cells K562, 10 μmol/L, 24 hours
Method: as §2
(§7) Group 3: leukemia cells K562 (1×10^6 cells/well) were inoculated into a 6-well culture plate for staying overnight, and 0 and 10 μmol/L of Mogroside I E1 Mogroside II A2 and mogrol were added respectively, and the culture was continued for 24 hours;
as §4, §5

[7] = system: phosphorylated STAT3 (P-STAT3, Tyr705); assay: Western Blotting of phosphorylated STAT3 in K562 cells; assay type: cell-based, human; conditions: leukemia cells K562, 10 μmol/L, 24 hours
Method: as §2, §7, §4, §5

[8] = system: phosphorylated STAT3 (P-STAT3, Tyr705); assay: Western Blotting of phosphorylated STAT3 in A875 cells; assay type: cell-based, human; conditions: melanoma A875 cells, 10 μmol/L, 24 hours
Method: as §2, §6, §4, §5

[9] = system: leukemia cells K562; assay: MTT colorimetric experiment, cell growth inhibition; assay type: cell-based, human; conditions: leukemia cells K562, 0.1, 1, 10, 100, 200 and 250 μmol/L, MTT after 24 h
Method: as §1

Structure (SMILES): C[C@H](CC[C@@H](O)C(C)(C)O)[C@H]1CC[C@@]2(C)[C@@H]3CC=C4[C@@H](CC[C@H](O[C@@H]5O[C@H](CO)[C@@H](O)[C@H](O)[C@H]5O)C4(C)C)[C@]3(C)[C@H](O)C[C@]12C [Mogroside I E1]
- cell growth inhibition rate [1]: inhibitory effect on the proliferation
- cell growth inhibition rate [2]: inhibitory effect on the proliferation
- expression level of phosphorylated ERK1/2 (P-ERK1/2) [3]: significantly decreased
- expression level of phosphorylated STAT3 (P-STAT3) [4]: significantly decreased
- expression level of phosphorylated ERK1/2 (P-ERK1/2) [5]: significantly decreased
- expression level of phosphorylated ERK1/2 (P-ERK1/2) [6]: significantly decreased
- expression level of phosphorylated STAT3 (P-STAT3) [7]: significantly decreased
- expression level of phosphorylated STAT3 (P-STAT3) [8]: significantly decreased
- cell growth inhibition rate [9]: inhibitory effect on the proliferation

Structure (SMILES): C[C@H](CC[C@@H](O)C(C)(C)O)[C@H]1CC[C@@]2(C)[C@@H]3CC=C4[C@@H](CC[C@H](O[C@@H]5O[C@H](CO[C@@H]6O[C@H](CO)[C@@H](O)[C@H](O)[C@H]6O)[C@@H](O)[C@H](O)[C@H]5O)C4(C)C)[C@]3(C)[C@H](O)C[C@]12C [Mogroside II A2]
- cell growth inhibition rate [1]: inhibitory effect on the proliferation
- cell growth inhibition rate [2]: inhibitory effect on the proliferation
- expression level of phosphorylated ERK1/2 (P-ERK1/2) [3]: significantly decreased
- expression level of phosphorylated STAT3 (P-STAT3) [4]: significantly decreased
- expression level of phosphorylated ERK1/2 (P-ERK1/2) [5]: significantly decreased
- expression level of phosphorylated ERK1/2 (P-ERK1/2) [6]: significantly decreased
- expression level of phosphorylated STAT3 (P-STAT3) [7]: significantly decreased
- expression level of phosphorylated STAT3 (P-STAT3) [8]: significantly decreased
- cell growth inhibition rate [9]: inhibitory effect on the proliferation

— patent US10617734B2, “STAT3 and ERK signal pathway inhibitor comprising mogrosides and analogs thereof” (BEIJING UNIVERSITY OF AGRICULTURE, priority 2014, dated 2020)
